The values below are quoted from earlier work in patent publication US20130034605A1, “EXTENDED RELEASE PHARMACEUTICAL COMPOSITIONS CONTAINING PALIPERIDONE” (MICRO LABS LIMITED, priority 2011, published 2013).

The structures appear in SMILES notation. Where two headings read alike, the source gives them in different places.

With `Cc1nc2n(c(=O)c1CCN1CCC(c3noc4cc(F)ccc34)CC1)CCCC2O` (racemic) [Paliperidone, (RS)-3-[2-[4-(6-fluorobenzo[d]isoxazol-3-yl)-1-piperidyl]ethyl]-7-hydroxy-4-methyl-1,5-diazabicyclo[4.4.0]deca-3,5-dien-2-one], the Solubility entry (in 0.1 N hydrochloric acid) was “soluble”, the Solubility entry (in methanol) is reported as “soluble”, the Solubility result (in methylene chloride) was “freely soluble” and the Solubility result (in water) was “practically insoluble”.
